Tested on: AMP-sensitive subjects with mild or moderate asthma
Experiment: Double-blind placebo-controlled cross-over study of pulmonary function in AMP-sensitive asthma (Examples 9, 11)
Assay type: in vivo, human
Procedure: The primary objective was to compare the incidence of bronchoconstrictive reactions, defined as reduction from baseline in FEV1 of >15% within 2 hours following an intravenous (iv) bolus of 400 micrograms of Regadenoson or matching placebo.
Men or women ≧18 years of age with a diagnosis of mild or moderate asthma as documented by clinical history and pulmonary function test were considered for inclusion. The target was to enrolled 48 evaluable subjects: 24 mild and 24 moderate asthma subjects. […] Patients were not permitted short-acting bronchodilators for >6 hours and long-acting bronchodilators and methylxanthines for >24 hours prior to AMP, Regadenoson, or placebo.
AMP (adenosine 5′-monophosphate sodium salt) was used as an indirect bronchoconstrictor stimulus to select a group of susceptible subjects with adenosine-mediated bronchial hyperreactivity. A standard clinical protocol utilized by the investigative site for the inhalation of AMP for the purpose of provoking a bronchoconstrictor response in the airways was adopted for screening of all subjects. On arrival in the unit, subjects were required to rest for 15 minutes before assessment of lung function at baseline, measured as the best of 3 technically acceptable recordings of FEV1 taken at 1-minute intervals. Subject inhaled a series of five breaths of saline as control, followed by a breath of each increasing concentration of AMP at 3-minute intervals. Two measurements of FEV1 were to be made 90 and 150 seconds after each saline inhalation. The highest FEV1 value was to be recorded. Unless a fall in FEV1 of >10% from the baseline value was observed, subjects then inhaled increasing doubling concentrations of AMP (starting at 0.39 mg/mL) until a ≧20% decrease of FEV1 from the post-saline value was recorded. FEV1 was to be recorded at 90 and 150 seconds after each concentration was administered.
Subjects received 400 μg Regadenoson or placebo administered as an intravenous (iv) bolus in a double-blind cross-over design. Repeated measurements of FEV1 as an assessment of bronchoconstriction were performed before and for up to 2 hours after study drug administration.
Two similar randomized, double-blind, placebo (PLC)-controlled crossover trials were conducted, one in asthmatics with a positive adenosine monophosphate (AMP) challenge (a validated marker of airway inflammation) and one in patients with moderate or several chronic obstructive pulmonary disease (COPD). In both studies, short-acting bronchodilators were held prior to and for the 120 minute time frame study drug treatment during which spirometry was repeatedly assessed.

## CNC(=O)c1cnn(-c2nc(N)c3ncn([C@@H]4O[C@H](CO)[C@@H](O)[C@H]4O)c3n2)c1 [Regadenoson, (1-{9-[(4S,2R,3R,5R)-3,4-dihydroxy-5-(hydroxymethyl)oxolan-2-yl]-6-aminopurin-2-yl}pyrazol-4-yl)-N-methylcarboxamide]
400 μg iv bolus
  incidence of chest discomfort: 21%
  incidence of dizziness: 53%
  incidence of dyspnea: 34%
  incidence of flushing: 32%
  incidence of headache: 45%
  incidence of nausea: 19%
  incidence of paraesthesia: 19%
  incidence of tachycardia: 66%
  time for HR to return to within 5 bpm of baseline: ≤ 60 min
400 μg iv bolus, compared with placebo
  maximum increase in HR: +10.4 bpm
400 μg iv bolus, placebo 8%
  incidence of adverse events: 98%
Asthma study
  incidence of dyspnea following REG: 34%
Asthma study N=48
  Number of patients with FEV1 decline by >20% over 120 min: 1 REG, 0 PLC
  Number of patients with FEV1 decline by >30% over 120 min: 1 REG, 0 PLC
  Number of patients with use of acute oxygen or short-acting bronchodilators: 0 REG, 0 PLC
Asthma study N=48, p = 0.17 vs PLC
  mean FEV1, all post-bolus time points combined: 3.33 (0.9)L REG
Asthma study N=48, p = 0.99
  Number of patients with FEV1 decline by >15% over 120 min: 2 REG, 2 PLC
Mild asthma (n=24), 400 μg iv bolus
  subjects with bronchoconstriction (FEV1 reduction >15% within 2 hours): None
Moderate asthma (n=24), 400 μg iv bolus
  number of subjects having bronchoconstriction (FEV1 reduction >15% within 2 hours): 2
